The values below come from patent publication US20240051970A1, “COMPOUNDS AND COMPOSITIONS FOR TREATING CONDITIONS ASSOCIATED WITH STING ACTIVITY” (IFM Due, Inc., priority 2020, published 2024).

The EC50 is the concentration at which the effect is half-maximal.

T1 sequence (Q86WV6 whole entry R71H/G230A/H232R/R293Q): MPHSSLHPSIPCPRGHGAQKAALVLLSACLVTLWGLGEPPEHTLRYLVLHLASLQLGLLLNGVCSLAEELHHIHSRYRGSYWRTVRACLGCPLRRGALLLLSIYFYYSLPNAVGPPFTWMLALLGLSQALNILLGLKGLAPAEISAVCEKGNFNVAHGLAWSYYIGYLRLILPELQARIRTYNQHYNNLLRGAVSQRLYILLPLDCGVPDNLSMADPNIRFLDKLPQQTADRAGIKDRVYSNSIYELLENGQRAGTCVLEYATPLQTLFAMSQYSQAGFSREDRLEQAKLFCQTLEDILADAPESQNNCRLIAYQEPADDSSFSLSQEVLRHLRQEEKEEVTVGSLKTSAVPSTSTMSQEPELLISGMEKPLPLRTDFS

The assay addresses T1, hSTING (Homo sapiens, UniProt Q86WV6, G230A/H232R/R293Q/R71H).
T1 construct: host or cells: THP1-Dual KO-IFNAR2 cells
As to the kind of experiment: STING reporter assay (luciferase) in THP1-Dual KO-IFNAR2 cells activated with 2'3'cGAMP. It counts as cell-based. The conditions noted are these: 15 μM 2'3'cGAMP, 24 h. How it is done:
STING pathway activation by the compounds described herein was measured using THP1-Dual™ cells (KO-IFNAR2).
THP1-Dual™ KO-IFNAR2 Cells (obtained from invivogen) were maintained in RPMI, 10% FCS, 5 ml P/S, 2 mM L-glut, 10 mM Hepes, and 1 mM sodium pyruvate. Compounds were spotted in empty 384 well tissue culture plates (Greiner 781182) by Echo for a final concentration of 0.0017-100 μM. Cells were plated into the TC plates at 40 μL per well, 2×10E6 cells/mL. For activation with STING ligand, 2′3′cGAMP (MW 718.38, obtained from Invivogen), was prepared in Optimem media.
The following solutions were prepared for each 1×384 plate: • Solution A: 2 mL Optimem with one of the following stimuli: • 60 μL of 10 mM 2′3′cGAMP 4 150 μM stock • Solution B: 2 mL Optimem with 60 μL Lipofectamine 2000 4 Incubate 5 min at RT
2 mL of solution A and 2 ml Solution B was mixed and incubated for 20 min at room temperature (RT). 20 μL of transfection solution (A+B) was added on top of the plated cells, with a final 2′3′cGAMP concentration of 15 μM. The plates were then centrifuged immediately at 340 g for 1 minute, after which they were incubated at 37° C., 5% CO2, >98% humidity for 24 h. Luciferase reporter activity was then measured. EC50 values were calculated by using standard methods known in the art.
Luciferase reporter assay: 10 μL of supernatant from the assay was transferred to white 384-plate with flat bottom and squared wells. One pouch of QUANTI-Luc™ Plus was dissolved in 25 mL of water. 100 μL of QLC Stabilizer per 25 mL of QUANTI-Luc™ Plus solution was added. 50 μL of QUANTI-Luc™ Plus/QLC solution per well was then added. Luminescence was measured on a Platereader (e.g., Spectramax I3X (Molecular Devices GF3637001)).
Luciferase reporter activity was then measured. EC50 values were calculated by using standard methods known in the art.
A general note: Reporter assays use an easily measured gene product as a stand-in for the process of interest.
`Cc1ccc2[nH]c(Nc3cc(Cl)c4cc[nH]c4c3)nc2c1` [Compound 118, N-(4-chloro-1H-indol-6-yl)-5-methyl-1H-benzo[d]imidazol-2-amine] displayed an EC50 of 200 to 1000 nM.

`CC(C)(C)C1CCC(c2ccc3[nH]c(Nc4cc(Cl)c5cc[nH]c5c4)nc3c2)CC1` (stereo not drawn) [Compound 136, 5-(4-tert-butylcyclohexyl)-N-(4-chloro-1H-indol-6-yl)-1H-1,3-benzodiazol-2-amine] displayed an EC50 of 1000 to 5000 nM.

With `FC(F)(F)c1ccc2[nH]c(Nc3cc(Cl)c4cc[nH]c4c3)nc2c1` [Compound 120, N-(4-chloro-1H-indol-6-yl)-5-(trifluoromethyl)-1H-benzo[d]imidazol-2-amine], the EC50 fell in the range of 200 to 1000 nM.

As for `Clc1cc(Nc2nc3cc(C4CCOC4)ccc3[nH]2)cc2[nH]ccc12` (stereo not drawn) [Compound 154, N-(4-chloro-1H-indol-6-yl)-5-(oxolan-3-yl)-1H-1,3-benzodiazol-2-amine], the concentration for a half-maximal effect (EC50) was 200 to 1000 nM.

The compound `Clc1cc(Nc2nc3cc(-c4ccc(N5CCCC5)nc4)ccc3[nH]2)cc2[nH]ccc12` [Compound 146, N-(4-chloro-1H-indol-6-yl)-5-[6-(pyrrolidin-1-yl)pyridin-3-yl]-1H-1,3-benzodiazol-2-amine] displayed an EC50 of 1000 to 5000 nM.

Compound `CC(C)(O)c1ccc(-c2ccc3[nH]c(Nc4cc(Cl)c5cc[nH]c5c4)nc3c2)cc1` [Compound 166, 2-(4-{2-[(4-chloro-1H-indol-6-yl)amino]-1H-1,3-benzodiazol-5-yl}phenyl)propan-2-ol] had an EC50 of 200 to 1000 nM.

Take `Fc1c[nH]c2cc(Nc3nc4cc(C(F)(F)F)ccc4[nH]3)ccc12` [Compound 175, N-(3-fluoro-1H-indol-6-yl)-5-(trifluoromethyl)-1H-1,3-benzodiazol-2-amine]: the EC50 was 40 to 200 nM.

`Cn1nccc1-c1ccc2[nH]c(Nc3cc(Cl)c4cc[nH]c4c3)nc2c1` [Compound 150, N-(4-chloro-1H-indol-6-yl)-5-(1-methyl-1H-pyrazol-5-yl)-1H-1,3-benzodiazol-2-amine] showed an EC50 of 200 to 1000 nM.

Turning to `CC(=O)N1CCC(c2ccc3[nH]c(Nc4cc(Cl)c5cc[nH]c5c4)nc3c2)CC1` [Compound 152, 1-(4-{2-[(4-chloro-1H-indol-6-yl)amino]-1H-1,3-benzodiazol-5-yl}piperidin-1-yl)ethan-1-one], the EC50 lay within 1000 to 5000 nM.

On to `OC1CCC(c2ccc3[nH]c(Nc4cc(Cl)c5cc[nH]c5c4)nc3c2)CC1` (stereo not drawn) [Compound 139, 4-{2-[(4-chloro-1H-indol-6-yl)amino]-1H-1,3-benzodiazol-5-yl}cyclohexan-1-ol], for which the EC50 is 1000 to 5000 nM.

In turn, `Cn1c(Nc2cc(Cl)c3cc[nH]c3c2)nc2cc(C(F)(F)F)ccc21` [Compound 113, N-(4-chloro-1H-indol-6-yl)-1-methyl-5-(trifluoromethyl)-1H-benzo[d]imidazol-2-amine] came in with an EC50 of 1000 to 5000 nM.

On to `Fc1ccc2nc(Nc3cc(Cl)c4cc[nH]c4c3)[nH]c2c1` [Compound 115, N-(4-chloro-1H-indol-6-yl)-6-fluoro-1H-benzo[d]imidazol-2-amine], for which the EC50 was in the range of 200 to 1000 nM.

Turning to `Cn1c(Nc2cc(Cl)c3cc[nH]c3c2)nc2cc(Cl)c(Cl)cc21` [Compound 109, 5,6-dichloro-N-(4-chloro-1H-indol-6-yl)-1-methyl-1H-benzo[d]imidazol-2-amine], the EC50 lay within 200 to 1000 nM.

In the case of `FC(F)(F)CN1CCC(c2ccc3[nH]c(Nc4cc(Cl)c5cc[nH]c5c4)nc3c2)CC1` [Compound 153, N-(4-chloro-1H-indol-6-yl)-5-[1-(2,2,2-trifluoroethyl)piperidin-4-yl]-1H-1,3-benzodiazol-2-amine], the 50% effective concentration (EC50) lay within 200 to 1000 nM.

The compound `Clc1cc(Nc2nc3cc(-c4cnn(CC5CC5)c4)ccc3[nH]2)cc2[nH]ccc12` [Compound 156, N-(4-chloro-1H-indol-6-yl)-5-[1-(cyclopropylmethyl)-1H-pyrazol-4-yl]-1H-1,3-benzodiazol-2-amine] showed a 50% effective concentration (EC50) of 200 to 1000 nM.

Compound `Clc1ccc2[nH]c(Nc3cc(Cl)c4cc[nH]c4c3)nc2c1` [Compound 117, 5-chloro-N-(4-chloro-1H-indol-6-yl)-1H-benzo[d]imidazol-2-amine] gave an EC50 of 200 to 1000 nM.

Consider `FC(F)(F)c1ccc2[nH]c(Nc3ccc4cc[nH]c4c3)nc2c1` [Compound 123, N-(1H-indol-6-yl)-5-(trifluoromethyl)-1H-benzo[d]imidazol-2-amine], for which the EC50 was 200 to 1000 nM.

In turn, `CC(C)CCc1ccc2[nH]c(Nc3cc(Cl)c4cc[nH]c4c3)nc2c1` [Compound 165, N-(4-chloro-1H-indol-6-yl)-5-(3-methylbutyl)-1H-1,3-benzodiazol-2-amine] had a concentration giving a half-maximal response (EC50) of 200 to 1000 nM.

`Clc1cc(Nc2nc3cc(-c4cnn(-c5ccccc5)c4)ccc3[nH]2)cc2[nH]ccc12` [Compound 164, N-(4-chloro-1H-indol-6-yl)-5-(1-phenyl-1H-pyrazol-4-yl)-1H-1,3-benzodiazol-2-amine] gave an EC50 of 200 to 1000 nM.

As to `COCCn1cc(-c2ccc3[nH]c(Nc4cc(Cl)c5cc[nH]c5c4)nc3c2)cn1` [Compound 158, N-(4-chloro-1H-indol-6-yl)-5-[1-(2-methoxyethyl)-1H-pyrazol-4-yl]-1H-1,3-benzodiazol-2-amine], the 50% effective concentration (EC50) was 200 to 1000 nM.

The compound `Clc1ccc2c(c1)nc(Nc1cc(Cl)c3cc[nH]c3c1)n2Cc1ccccc1` [Compound 106, 1-benzyl-5-chloro-N-(4-chloro-1H-indol-6-yl)-1H-benzo[d]imidazol-2-amine] yielded an EC50 of 1000 to 5000 nM.

For the compound `CC(C)(C)OC(=O)N1CCC(c2ccc3[nH]c(Nc4cc(Cl)c5cc[nH]c5c4)nc3c2)CC1` [Compound 162, tert-butyl 4-{2-[(4-chloro-1H-indol-6-yl)amino]-1H-1,3-benzodiazol-5-yl}piperidine-1-carboxylate], the concentration giving a half-maximal response (EC50) fell in the range of 200 to 1000 nM.

In turn, `Cn1c(Nc2ccc3cc[nH]c3c2)nc2cc(C(F)(F)F)ccc21` [Compound 121, N-(1H-indol-6-yl)-1-methyl-5-(trifluoromethyl)-1H-benzo[d]imidazol-2-amine] displayed an EC50 of 200 to 1000 nM.

`Clc1cc2nc(Nc3cc(Cl)c4cc[nH]c4c3)[nH]c2cc1Cl` [Compound 110, 5,6-dichloro-N-(4-chloro-1H-indol-6-yl)-1H-benzo[d]imidazol-2-amine] had an EC50 of 40 to 200 nM.

Compound `CN1CCC(c2ccc3[nH]c(Nc4cc(Cl)c5cc[nH]c5c4)nc3c2)CC1` [Compound 160, N-(4-chloro-1H-indol-6-yl)-5-(1-methylpiperidin-4-yl)-1H-1,3-benzodiazol-2-amine] yielded an EC50 of 5000 to 100000 nM.

With `FC(F)(F)C1CCC(c2ccc3[nH]c(Nc4cc(Cl)c5cc[nH]c5c4)nc3c2)CC1` (stereo not drawn) [Compound 142, N-(4-chloro-1H-indol-6-yl)-5-[4-(trifluoromethyl)cyclohexyl]-1H-1,3-benzodiazol-2-amine], the EC50 is 1000 to 5000 nM.

`Cn1ccc(-c2ccc3[nH]c(Nc4cc(Cl)c5cc[nH]c5c4)nc3c2)n1` [Compound 144, N-(4-chloro-1H-indol-6-yl)-5-(1-methyl-1H-pyrazol-3-yl)-1H-1,3-benzodiazol-2-amine] showed an EC50 of 200 to 1000 nM.

Regarding `CS(=O)(=O)N1CCC(c2ccc3[nH]c(Nc4cc(Cl)c5cc[nH]c5c4)nc3c2)CC1` [Compound 171, N-(4-chloro-1H-indol-6-yl)-5-(1-methanesulfonylpiperidin-4-yl)-1H-1,3-benzodiazol-2-amine], the concentration for a half-maximal effect (EC50) lay in the range of 200 to 1000 nM.

For `CC1(C)CC(c2ccc3[nH]c(Nc4cc(Cl)c5cc[nH]c5c4)nc3c2)CC(C)(C)O1` [Compound 143, N-(4-chloro-1H-indol-6-yl)-5-(2,2,6,6-tetramethyloxan-4-yl)-1H-1,3-benzodiazol-2-amine], the EC50 fell in the range of 5000 to 100000 nM.

Turning to `Clc1cc(Nc2nc3cc(C4CCCCC4)ccc3[nH]2)cc2[nH]ccc12` [Compound 168, N-(4-chloro-1H-indol-6-yl)-5-cyclohexyl-1H-1,3-benzodiazol-2-amine], the EC50 fell in the range of 200 to 1000 nM.

Regarding `CC(C)(C)OC(=O)N1C2C=C(c3ccc4[nH]c(Nc5cc(Cl)c6cc[nH]c6c5)nc4c3)CC1CC2` (stereo not drawn) [Compound 140, tert-butyl 3-{2-[(4-chloro-1H-indol-6-yl)amino]-1H-1,3-benzodiazol-5-yl}-8-azabicyclo[3.2.1]oct-2-ene-8-carboxylate], the EC50 was in the range of 1000 to 5000 nM.

Turning to `COCc1cccc(-c2ccc3[nH]c(Nc4cc(Cl)c5cc[nH]c5c4)nc3c2)c1` [Compound 169, N-(4-chloro-1H-indol-6-yl)-5-[3-(methoxymethyl)phenyl]-1H-1,3-benzodiazol-2-amine], the EC50 lay within 200 to 1000 nM.

As to `O=C(C1CC1)N1CCC(c2ccc3[nH]c(Nc4cc(Cl)c5cc[nH]c5c4)nc3c2)CC1` [Compound 172, N-(4-chloro-1H-indol-6-yl)-5-(1-cyclopropanecarbonylpiperidin-4-yl)-1H-1,3-benzodiazol-2-amine], the EC50 lay within 200 to 1000 nM.
